Reference: US20250228824A1, “COMPOSITIONS AND METHODS FOR INHIBITION OF ITO AS TREATMENT FOR THE J WAVE SYNDROMES AND HYPOTHERMIA” (Lankenau Institute for Medical Research, priority 2021, published 2025)

Legend:
[1] = system: coronary-perfused canine right (RV) and left (LV) ventricular wedge models of JWS; assay: Coronary-perfused ventricular wedge models of the J wave syndromes (NS5806 alone or with verapamil); set-up: QT interval / T wave amplitude / Epi (APD50) / Epi (APD90): unit not given here
Protocol: Ten hearts from purpose-bred adult male mongrel dogs (20-22 kg) were acquired from Covance (Denver, PA) and another 10 hearts from purpose-bred adult male Beagle dogs (10-16 kg) were obtained from Envigo (Denver, PA). Dogs were sedated with ketamine (10 mg/kg, IM) and xylazine 2 (mg/kg, IM). Prior to euthanasia (Euthasol solution: pentobarbital sodium and phenytoin sodium; 0.22 ml/kg, IV), and heparin (human pharmaceutical grade, 1,000 U/kg, IV) were administered 3-4 min before isolation of the hearts via a left thoracotomy. Retrograde aortic perfusion of the hearts with ice-cold cardioplegic solution (modified K-H solution; 16 mM KCl) was immediately performed to rinse the coronary vasculature of blood. The hearts were then placed in a sealed container containing ice-cold cardioplegic solution and transported to our institution via private courier in an insulated package filled with icepacks.
Transmural wedges were dissected from the base of the RV and LV. During the cannulation procedure, preparations were initially arterially perfused with cardioplegic solution. Next, the wedge preparations were placed in a tissue bath and perfused with a modified Krebs-Henseleit solution (K—H) bubbled with 95% O2/5% CO2 warmed to 37° C. The composition of K—H was (in mM): 118 NaCl, 4 KCl, 2 CaCl2, 1.2 MgSO4, 24 NaHCO3, 1.2 NaH2PO4, 2 Na Pyruvate and 10 D-Glucose. The perfusate was delivered at a constant pressure (45-50 mmHg). A transmural pseudo-ECG (ECG) was recorded using two Ag/AgCl half cells placed at ˜1 cm from the Epi (+) and Endo (−) surfaces along the same axis as the transmembrane action potential (AP) recordings. APs were simultaneously recorded from the immediate sub-Epi and M cell region (˜2-3 mm from the Endo surface) using floating glass microelectrodes. Pacing was applied to the Endo surface using bipolar silver electrodes insulated except at the tips (Basic Cycle Lengths [BCLs]: 500-2,000 ms). A detailed description of the arterially-perfused ventricular wedge preparation has been previously published.^5 ECG and AP signals were digitized and analyzed using Spike 2 for Windows (Cambridge Electronic Design, Cambridge, UK).
We used the Ito-agonist NS5806 (5-10 μM) alone or with the calcium-channel blocker verapamil (2.5 μM) to pharmacologically mimic the effects of the ion channel genetic defects underlying ERS and BrS. These provocative agents were added to the coronary perfusate in increasing concentrations until the characteristic ECG phenotypes were unmasked, including phase 2 reentry (P2R), closely coupled premature beats (CCPBs) and/or pVT/VF. AR-787 was added to the perfusate to test its ability to suppress or prevent arrhythmogenesis.

[2] = high doses / high plasma levels; cited from earlier work
[3] = NS5806 5-10 μM, 3 LV wedges, BCL 800 msec

O=C(Nc1cc(C(F)(F)F)cc(C(F)(F)F)c1)Nc1c(Br)cc(Br)cc1-c1nn[nH]n1 [NS5806, reference compound]
QT interval ([1]; AR-787 1, 10 or 50 μM, NS5806 5-10 μM, five wedges): unaffected | effect on phase 1 magnitude, AP notch and J wave ([1]; NS5806 5-10 μM in coronary perfusate): increased the magnitude of phase 1 | Epi (APD50) [1, 3]: 181.8 ± 10.4 | Epi (APD90) [1, 3]: 215.6 ± 5.3 | J wave amplitude [1, 3]: 31.3 ± 4.6 | M (APD50) [1, 3]: 179.5 ± 5.9 | M (APD90) [1, 3]: 228.4 ± 7.7 | Ph1 mag (% Ph0) [1, 3]: 40.2 ± 6.5 % Ph0 | QT interval [1, 3]: 261.2 ± 4.5 | T wave amplitude [1, 3]: 17.8 ± 9.6

C=C[C@H]1C[N@@]2CC[C@H]1C[C@@H]2[C@@H](O)c1ccnc2ccc(OC)cc12 [quinidine]
patients developing serious GI side effects [2]: approximately 50%
